Test [1] concerns P. falciparum female gametocytes. The experiment in a line: P. falciparum Dual Gamete Formation Assay (PfDGFA), female readout (Pfs25-positive female gametes). To be noted: for Average inhibition female (%): average of replicates; for % inhibition female (individual replicates) R1: replicate R1; for % inhibition female (individual replicates) R3: replicate R3; for % inhibition female (individual replicates) R4: replicate R4. Type of test: cell-based, Plasmodium falciparum NF54. A digest of the protocol: (§1)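 Two sex-specific readouts come from one well: male exflagellation centres recorded by brightfield video right after activation, and female gametes scored by Cy3-anti-Pfs25 fluorescence after 24 h at 28°C.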

Test [2] has as its system P. falciparum male gametocytes. The experiment in a line: P. falciparum Dual Gamete Formation Assay (PfDGFA), male readout (exflagellation). Type of test: cell-based, Plasmodium falciparum NF54. To be noted: for Average inhibition male (%): average of replicates; for % inhibition male (individual replicates) R1: replicate R1; for % inhibition male (individual replicates) R3: replicate R3; for % inhibition male (individual replicates) R4: replicate R4; for Activity: hit = >50% inhibition in male or female readout in at least 3 replicates, 0 = no class assigned. The essentials:
as §1

Setting [3] is: 2µM, 24h preincubation with gametocytes prior to induction of gametogenesis.
[4] abbreviates: 2µM, 24h preincubation, number of replicates with >50% inhibition in the female readout.
The mark [5] stands for this setting: 2µM, 24h preincubation, number of replicates with >50% inhibition in the male readout.
Setting [6] is: PfDGFA at 2µM, 24h preincubation with gametocytes prior to induction of gametogenesis.
Where [7] appears, read: PfDGFA at 2µM, 24h preincubation.
Where [8] appears, read: 2µM, 24h preincubation, hits selected on >50% inhibition in the female readout across replicates.
Setting [9] is: 2µM, 24h preincubation, hits selected on >50% inhibition in the male readout across replicates.

In the case of `CN(CCc1ccccc1)c1ncc(-c2cccc(CNCCC3CCCN3C)c2)cn1` (stereo not drawn) [TCMDC-133143], in test [1] (setting [3]), the “Average inhibition female (%)” value worked out at 35.0%, the “% inhibition female (individual replicates) R1” value is 22.5%, the “% inhibition female (individual replicates) R3” value worked out at 13.4% and the “% inhibition female (individual replicates) R4” value is 55.4%. Further, in test [1] (setting [4]), the HitlevelF amounted to 1. In addition, in test [2] (setting [3]), the “Average inhibition male (%)” value is reported as 57.0%, the “% inhibition male (individual replicates) R1” value is reported as 66.7%, the “% inhibition male (individual replicates) R3” value is given as 31.4% and the “% inhibition male (individual replicates) R4” value turned out to be 52.9%. This molecule also came in with a HitlevelM in test [2] (setting [5]) of 3.
In the case of `CN1CCCC1CCNCc1cccc(-c2cnc(N3CCCC(C)(C)C3)nc2)c1` (stereo not drawn) [TCMDC-133144], in test [1] (setting [3]), the “Average inhibition female (%)” value turned out to be 21.7%, the “% inhibition female (individual replicates) R1” value is on record as 23.0%, the “% inhibition female (individual replicates) R3” value is on record as 21.4% and the “% inhibition female (individual replicates) R4” value came out at 13.1%. The HitlevelF in test [1] (setting [4]) was 0. Moreover, in test [2] (setting [3]), the “Average inhibition male (%)” value worked out at 57.1%, the “% inhibition male (individual replicates) R1” value stood at 64.8%, the “% inhibition male (individual replicates) R3” value was 37.3% and the “% inhibition male (individual replicates) R4” value was 70.2%. Also, the HitlevelM in test [2] (setting [5]) is 3.
Turning to `O=C(Nc1ccsc1)Nc1cccc(-c2ccc(-c3nc4cc(C(F)(F)F)ccc4[nH]3)cc2)c1` [TCMDC-133210], in test [1] (setting [6]), the “% inhibition female (individual replicates) R1” value was found to be 5.3%, the “% inhibition female (individual replicates) R3” value is -25.6% and the “% inhibition female (individual replicates) R4” value is reported as -2.5%. Besides, the “Average inhibition female (%)” value in test [1] (setting [7]) is reported as -7.9%. For the same molecule, in test [2] (setting [6]), the “% inhibition male (individual replicates) R1” value is -6.9%, the “% inhibition male (individual replicates) R3” value is -21.6% and the “% inhibition male (individual replicates) R4” value worked out at 0.9%. For the same molecule, the “Average inhibition male (%)” value in test [2] (setting [7]) was -14.6%.
Regarding `CCCCCN1CCCC1CNS(=O)(=O)c1cccc(C(=O)Nc2cccc(C#N)c2)c1.O=C(O)C(F)(F)F` (stereo not drawn) [TCMDC-133690], in test [1] (setting [6]), the “% inhibition female (individual replicates) R1” value was 2.9%, the “% inhibition female (individual replicates) R3” value is -5.0% and the “% inhibition female (individual replicates) R4” value is 6.8%. Also, in test [1] (setting [7]), the “Average inhibition female (%)” value is -0.08%. In addition, in test [2] (setting [6]), the “% inhibition male (individual replicates) R1” value is -0.3% and the “% inhibition male (individual replicates) R4” value was 15.0%. In addition, the “Average inhibition male (%)” value in test [2] (setting [7]) came to 7.9%.
In the case of `Cl.NCc1ccc(-c2ccc3c(N)nccc3c2)cc1` [TCMDC-133718], in test [1] (setting [3]), the “Average inhibition female (%)” value was determined as 21.1%, the “% inhibition female (individual replicates) R1” value stood at 11.2%, the “% inhibition female (individual replicates) R3” value is reported as 8.8% and the “% inhibition female (individual replicates) R4” value amounted to 10.1%. Also, the HitlevelF in test [1] (setting [4]) amounted to 1. In test [2] (setting [3]), the “Average inhibition male (%)” value was determined as 18.4%, the “% inhibition male (individual replicates) R1” value is listed as -0.6%, the “% inhibition male (individual replicates) R3” value is on record as -25.8% and the “% inhibition male (individual replicates) R4” value is recorded as 49.6%. Moreover, in test [2] (setting [5]), the HitlevelM is recorded as 1.
With `Cc1cccc(-c2cccc(CNc3nc(NCCc4ccc(O)cc4)nc(N4CCNCC4)n3)c2)c1.O=C(O)C(F)(F)F` [TCMDC-133810], in test [1] (setting [3]), the “Average inhibition female (%)” value amounted to 7.6%, the “% inhibition female (individual replicates) R1” value is listed as 16.4%, the “% inhibition female (individual replicates) R3” value was -13.0% and the “% inhibition female (individual replicates) R4” value was determined as 18.6%. The HitlevelF in test [1] (setting [8]) stood at 0. In test [2] (setting [3]), the “Average inhibition male (%)” value is -4.6%, the “% inhibition male (individual replicates) R1” value is given as -4.0%, the “% inhibition male (individual replicates) R3” value was -16.3% and the “% inhibition male (individual replicates) R4” value was 16.2%. In test [2] (setting [9]), this molecule gave a HitlevelM of 0. This molecule displayed an Activity in test [2] (setting [7]) of 0.
Regarding `CN1CCC(N2CCN(Cc3cccc(-c4ccc(-c5nc6cc(F)ccc6[nH]5)cc4)c3)CC2)CC1.O=C(O)C(F)(F)F` [TCMDC-133858], in test [1] (setting [3]), the “Average inhibition female (%)” value came to 6.0%, the “% inhibition female (individual replicates) R1” value turned out to be 1.0%, the “% inhibition female (individual replicates) R3” value was -3.8% and the “% inhibition female (individual replicates) R4” value turned out to be 20.5%. The same molecule had a HitlevelF in test [1] (setting [8]) of 0. For the same molecule, in test [2] (setting [3]), the “Average inhibition male (%)” value is 26.9%, the “% inhibition male (individual replicates) R1” value amounted to 35.0%, the “% inhibition male (individual replicates) R3” value is on record as -5.5% and the “% inhibition male (individual replicates) R4” value is 46.2%. Also, in test [2] (setting [9]), the HitlevelM was found to be 0. Besides, the Activity in test [2] (setting [7]) stood at 0.
As to `Cc1cccc2nc(-c3ccc(-c4ccc(CN5CCC(N)C5)cc4)s3)[nH]c12.O=C(O)C(F)(F)F` (stereo not drawn) [TCMDC-133862], in test [1] (setting [3]), the “Average inhibition female (%)” value was determined as 4.0%, the “% inhibition female (individual replicates) R1” value is on record as 5.8%, the “% inhibition female (individual replicates) R3” value is given as 5.7% and the “% inhibition female (individual replicates) R4” value is reported as 2.9%. Besides, the HitlevelF in test [1] (setting [8]) is recorded as 0. Further, in test [2] (setting [3]), the “Average inhibition male (%)” value is listed as -1.0%, the “% inhibition male (individual replicates) R1” value is -13.8% and the “% inhibition male (individual replicates) R4” value is on record as 7.3%. In test [2] (setting [9]), this molecule showed a HitlevelM of 0. Also, the Activity in test [2] (setting [7]) was found to be 0.
As to `Cc1cccc2nc(-c3ccc(-c4ccc(CN5CCN(C6CCN(C)CC6)CC5)cc4)s3)[nH]c12.O=C(O)C(F)(F)F` [TCMDC-133866], in test [1] (setting [3]), the “Average inhibition female (%)” value stood at 32.5%, the “% inhibition female (individual replicates) R1” value came out at 26.9%, the “% inhibition female (individual replicates) R3” value is listed as 41.8% and the “% inhibition female (individual replicates) R4” value was 27.5%. In test [1] (setting [4]), this molecule registered a HitlevelF of 0. Further, in test [2] (setting [3]), the “Average inhibition male (%)” value was found to be 12.4%, the “% inhibition male (individual replicates) R1” value amounted to 12.8%, the “% inhibition male (individual replicates) R3” value came out at 24.6% and the “% inhibition male (individual replicates) R4” value is reported as 21.2%. In test [2] (setting [5]), the HitlevelM is reported as 0.
With `NC1CCN(Cc2ccc(-c3ccc(-c4nc5ccccc5[nH]4)cc3)cc2)C1.O=C(O)C(F)(F)F` (stereo not drawn) [TCMDC-133868], in test [1] (setting [3]), the “Average inhibition female (%)” value is given as 15.3%, the “% inhibition female (individual replicates) R1” value was found to be 0.6%, the “% inhibition female (individual replicates) R3” value is -10.8% and the “% inhibition female (individual replicates) R4” value is 34.5%. For the same molecule, in test [1] (setting [4]), the HitlevelF worked out at 0. Moreover, in test [2] (setting [3]), the “Average inhibition male (%)” value came to 53.2%, the “% inhibition male (individual replicates) R1” value stood at 65.7%, the “% inhibition male (individual replicates) R3” value was 18.3% and the “% inhibition male (individual replicates) R4” value amounted to 71.6%. In addition, the HitlevelM in test [2] (setting [5]) was 3.
Turning to `NC1CCN(Cc2ccc(-c3ccc(-c4nc5cc(F)ccc5[nH]4)cc3)cc2)C1.O=C(O)C(F)(F)F` (stereo not drawn) [TCMDC-133872], in test [1] (setting [3]), the “Average inhibition female (%)” value is recorded as 9.7%, the “% inhibition female (individual replicates) R1” value is reported as 21.7%, the “% inhibition female (individual replicates) R3” value is given as 5.5% and the “% inhibition female (individual replicates) R4” value is on record as 3.9%. Further, the HitlevelF in test [1] (setting [8]) worked out at 0. In test [2] (setting [3]), the “Average inhibition male (%)” value turned out to be 30.9%, the “% inhibition male (individual replicates) R1” value worked out at 32.1%, the “% inhibition male (individual replicates) R3” value is 18.9% and the “% inhibition male (individual replicates) R4” value was 53.6%. In test [2] (setting [9]), this molecule showed a HitlevelM of 1. In addition, the Activity in test [2] (setting [7]) is 0.
